Laboratory results taken from US20200121620A1, “SENOLYTIC COMPOUNDS” (UNITED KINGDOM RESEARCH AND INNOVATION, priority 2017, published 2020).
Where a name gives a salt, the structure may show the parent alone.

Columns and labels:
[1] = test system: senescent cells in the lung; assay: Elimination of senescent cells induced by Doxorubicin treatment in mice; type: in vivo; details: single dose 10 mg/kg Doxorubicin; 2 months later treated for 4 consecutive days; FIG. 15
Procedure: (§1) (A) Experimental set up, mice (n=5 per group) were administered with a single dose of 10 mg/kg of Doxorubicin. […] (B) Cryosections of lungs obtained from control and doxorubicin treated mice were stained with hematoxilin and eosin (to reveal tissue architecture), and SA-β-Gal (to reveal senescent cells). Senescent cells accumulate in the bronchioles of doxorubicin-treated mice. (C) Quantification of the lung area positive for SA-β-Gal staining. […] (D) Representative pictures of lung cryosections.
Further experiments investigated whether the senolytic agents were capable of eliminating senescent cells in vivo. […] These senescent cells are responsible for some of the side-effects associated with chemotherapy and can fuel the growth of cancerous cells (Demaria et al., 2016). […] Doxorubicin treatment induces senescence in the lung.

[2] = test system: senescent cells in the lung; assay: Elimination of senescent cells induced by whole body irradiation in mice; type: in vivo; details: 6 Gray whole body irradiation; 2 months later treated for 4 consecutive days; FIG. 16
Source text: as §1, with “irradiated” for “administered”, “6 Gray to induce senescence.” for “a single dose of 10 mg/kg of Doxorubicin.”, “irradiated” for “doxorubicin treated”, “irradiated” for “doxorubicin-treated”, “(D).” for “(D)”
Whole-body irradiation is known to cause senescence. In irradiated mice, senescent cells accumulate in different tissues, including the lung (Chang et al., 2016; Yosef et al., 2016).

[3] = use in vivo; cited from earlier work
[4] = in vivo; cited from earlier work
[5] = cited from earlier work
IMR90 ER:RAS cells [6] = assay: Senolytic activity in IMR90 ER:RAS cells undergoing oncogene-induced senescence (4OHT) vs DMSO-treated non-senescent cells; details: for death of cells undergoing oncogene induced senescence: 100 nM 4OHT, treated 6 days after induction at indicated concentrations, FIG. 18; for ability of FAK inhibitors to kill differentially senescent cells (4OHT induced) vs non-senescent cells (DMSO treated): FIG. 12; for senolytic properties: selective reduction of senescent (+4OHT) vs normal (−4OHT) cell numbers: 10 μM added 6 days after 100 nM 4OHT, cell numbers 4 days after (DAPI or crystal violet), FIG. 1, FIG. 10
Procedure: FIG. 1: (A) IMR90 ER:RAS cells were induced to undergo senescence by treating them with 100 nM 4OHT for 6 days. At that point, 10 μM of the indicated drugs was added. In parallel, the same treatments were carried out in IMR90 ER:RAS cells treated with DMSO (−4OHT). […] Cells were fixed at day 6, 8 and 10 after 4OHT induction and stained with crystal violet to assess cell viability. T, Tyr-AG879; P, PF-573228; C, Cyclosporine. (B) A similar experiment to (A) was conducted and cells at day 10 post-induction were fixed and stained with DAPI to assess cell numbers
In the setup used, IMR90 ER:RAS cells were treated with 100 nM 4OHT to induce OIS (oncogene induced senescence) and activate the ER:RAS fusion protein. 6 days after 4OHT induction (+4OHT), once cells were fully senescent, the agents to be tested were added at a concentration of 10 μM, and cell numbers were assessed 4 days after by DAPI stained couple to automated microscopy. Alternatively, cells were fixed and stained with crystal violet. In parallel, the same treatments were carried out in IMR90 ER:RAS cells treated with DMSO (−4OHT).
IMR90 ER:RAS cells were induced to undergo senescence by treating them with 100 nM 4OHT for 6 days. At that point, 10 μM of the indicated drugs was added. In parallel, the same treatments were carried out in IMR90 ER:RAS cells treated with DMSO (−4OHT). […] Cells were fixed at day 6, 8 and 10 after 4OHT induction and stained with crystal violet to assess cell viability. A similar experiment was conducted and cells at day 10 post-induction were fixed and stained with DAPI to assess cell numbers (see FIG. 1).

[7] = test system: IMR90 cells undergoing OIS; assay: Western blot of cleaved caspase 3 in IMR90 cells undergoing OIS; type: cell-based, human; details: FIG. 17
Source text: Western blot showing cleaved caspase 3 upon treatment of IMR90 cells undergoing OIS with cardiac glycosides.

[8] = test system: IMR90 Cherry and IMR90 ER:RAS GFP cells; assay: Mixed cultures of normal (IMR90 Cherry) and senescent (IMR90 ER:RAS GFP) cells; type: cell-based, human; details: IMR90 Cherry mixed with IMR90 ER:RAS GFP, 4OHT; FIG. 14
Source text: FIG. 14: Senolytic agents JFD 00244 and Rottlerin specifically eliminate senescent cells in mixed cultures containing normal and senescent cells. (A) Setup of the experiments, in which normal cells (IMR90 Cherry) are mixed with IMR90 ER:RAS GFP cells (which become senescent in the presence of 4OHT). (B) Representative pictures showing the mixed cultures treated with the indicated drugs. In the bottom row, upon 4OHT the IMR90 ER:RAS GFP cells are senescent. (C) Quantification of the IMR90 Cherry (left bar) and IMR90 ER:RAS GFP (right bar) in the mixed cultures.
The above experiments were all performed comparing the effects of the drugs in cultures of normal and senescent cells. To understand whether the drugs selectively kill senescent cells from a mixed culture, experiments were conducted using Cherry-labelled normal IMR90 cells and GFP labelled IMR90 ER:RAS cells that could be induced to undergo senescence upon treatment with 4OHT (FIG. 14A).
Compounds JFD 00244 and Rottlerin specifically eliminate senescent cells in mixed cultures containing normal and senescent cells (see FIG. 14). (A) Setup of the experiments, in which normal cells (IMR90 Cherry) are mixed with IMR90 ER:RAS GFP cells (which become senescence in the presence of 4OHT). […] (C) Quantification of the IMR90 Cherry and IMR90 ER:RAS GFP in the mixed cultures.

[9] = test system: Nras^G12V-positive senescent hepatocytes; assay: Model of liver cancer initiation (NrasG12V hydrodynamic tail vein injection); type: in vivo; details: CB17 SCID/beige mice, 1 mg/kg ip for 3 days from day 5, livers day 9
Source text: (A) CB17 SCID/beige mice immunosuppressed mice were subjected to hydrodynamic tail vein injection to express NrasG12V on the liver and induce oncogene-induced senescence on hepatocytes as described in Kang et al (Nature 2011, PMID: 22080947).

old mice = assay: Intermittent ouabain treatment of old mice (ageing experiment); type: in vivo
Procedure: (A) 24 month old female mice were subjected to the schedule summarized in this panel. […] (B) Results of rotarod test that assess the physical fitness and coordination of mice. Left bar=saline, right bar=Ouabain.
The concentrations of Albumin (A), Amylase (B) and PHOS (C) on plasma were measured in mice from the aging experiment described in FIG. 21A. 90 days old female mice were included as a comparison (young).

IMR90 ER:RAS cells [10] = assay: Senolysis in presence or absence of pan-caspase inhibitor QVD (apoptosis); type: cell-based, human; details: 2 or 3 days treatment, with or without QVD; FIG. 13
Procedure: FIG. 13: Several of the senolytic agents kill senescent cells by inducing apoptosis. […] Consequently cells were treated with DMSO, ABT-263 or the indicated senolytics for 2 (A) or 3 days (B) in the presence (right bar) or absence (left bar) of the pan-caspase inhibitor QVD. Treatment of senescent cells with senolytics kills them, but is prevented in the case of PF-573228, rottlerin and rotenone by pre-treatment with the pan-caspase inhibitor QVD. ABT, ABT-263; PF, PF-573228; JFD, JFD 00244; DPI, diphenyleneiodonium.
Experiments were conducted to investigate the mechanism by which the senolytics caused the elimination of senescent cells using a pan-caspase inhibitor (QVD).
Several of the agents described herein kill senescent cells by inducing apoptosis. […] Consequently, cells were treated with DMSO, ABT-263 or the indicated senolytics for 2 (A) or 3 days (B) in the presence or absence of the pan-caspase inhibitor QVD. Treatment of senescent cells with senolytics kills them, but is prevented in the case of PF-573228, rottlerin and rotenone by pre-treatment with the pan-caspase inhibitor QVD (see FIG. 13).

CC1(C)CCC(c2ccc(Cl)cc2)=C(CN2CCN(c3ccc(C(=O)NS(=O)(=O)c4ccc(N[C@H](CCN5CCOCC5)CSc5ccccc5)c(S(=O)(=O)C(F)(F)F)c4)cc3)CC2)C1 [ABT-263]
lung area positive for SA-β-Gal staining (senescent cells) [1]: partially eliminated | lung area positive for SA-β-Gal staining (senescent cells) [2]: partially eliminated | side-effect [3]: significant thrombocytopenia

CN(C)CC[C@H](CSc1ccccc1)Nc1ccc(S(=O)(=O)NC(=O)c2ccc(N3CCN(Cc4ccccc4-c4ccc(Cl)cc4)CC3)cc2)cc1[N+](=O)[O-] [ABT-737]
oral bioavailability [4]: low | solubility [5]: low

CC(C)c1c(C(=O)Nc2ccccc2)c(-c2ccccc2)c(-c2ccc(F)cc2)n1CC[C@@H](O)C[C@@H](O)CC(=O)O [Atorvastatin calcium]
senolytic effect of statins, preferential killing of cells undergoing OIS (IMR90 ER:RAS cells [6]; 4OHT vs DMSO, FIG. 11): behaves as a senolytic in concentration dependent manner

C[C@]12CC[C@H](O)C[C@H]1CC[C@@H]1[C@@H]2CC[C@]2(C)[C@@H](c3ccc(=O)oc3)CC[C@]12O [Bufalin, (3β,5β)-3,14-Dihydroxybufa-20,22-dienolide]
death of cells undergoing oncogene induced senescence (IMR90 ER:RAS cells [6]): dose-dependent death of cells undergoing oncogene induced senescence

CNC(=O)c1ccc(Nc2ncc(C(F)(F)F)c(NCc3nccnc3N(C)S(C)(=O)=O)n2)cc1 [Defactinib]
ability of FAK inhibitors to kill differentially senescent cells (4OHT induced) vs non-senescent cells (DMSO treated) (IMR90 ER:RAS cells [6]): preferentially kill senescent cells in a dose-dependent manner

C[C@H]1O[C@@H](O[C@H]2[C@@H](O)C[C@H](O[C@H]3[C@@H](O)C[C@H](O[C@H]4CC[C@@]5(C)[C@H](CC[C@@H]6[C@@H]5C[C@@H](O)[C@]5(C)[C@@H](C7=CC(=O)OC7)CC[C@]65O)C4)O[C@@H]3C)O[C@@H]2C)C[C@H](O)[C@@H]1O [Digoxin]
cleaved caspase 3 (apoptosis in senescent cells) [7]: induces apoptosis in senescent cells | death of cells undergoing oncogene induced senescence (IMR90 ER:RAS cells [6]): dose-dependent death of cells undergoing oncogene induced senescence

O=C1c2ccccc2C(=O)c2c(NCCc3ccc(O)cc3)ccc(NCCc3ccc(O)cc3)c21 [JFD00244, 1,4-Bis[(p-hydroxy-phenethyl)amino]-anthraquinone]
selective elimination of senescent cells from mixed cultures [8]: selective elimination of senescent cells from the co-cultures

Nc1cc(N)c(N)cc1N [NSC 677249, 1,2,4,5- Benzenetetramine tetrahydrochloride]
ability of FAK inhibitors to kill differentially senescent cells (4OHT induced) vs non-senescent cells (DMSO treated) (IMR90 ER:RAS cells [6]): preferentially kill senescent cells in a dose-dependent manner

C[C@@H]1O[C@@H](O[C@H]2C[C@@H](O)[C@]3(CO)[C@H]4[C@H](O)C[C@]5(C)[C@@H](C6=CC(=O)OC6)CC[C@]5(O)[C@@H]4CC[C@]3(O)C2)[C@H](O)[C@H](O)[C@H]1O [Ouabain]
cleaved caspase 3 (apoptosis in senescent cells) [7]: induces apoptosis in senescent cells | lung area positive for SA-β-Gal staining (senescent cells) [1]: partially eliminated | lung area positive for SA-β-Gal staining (senescent cells) [2]: partially eliminated | death of cells undergoing oncogene induced senescence (IMR90 ER:RAS cells [6]): dose-dependent death of cells undergoing oncogene induced senescence | senolytic activity on adding KCl (increased intracellular K+) (IMR90 ER:RAS cells [6]; with KCl, FIG. 20A): prevented by increasing the intracellular K^+ concentration by adding KCl | senolytic activity on inhibition of p38 (IMR90 ER:RAS cells [6]; with p38 inhibition, FIG. 20B): partially prevents the senolytic properties of ouabain | SA-b-gal activity in liver ([9]; FIG. 25B): reduced | p21-positive cells ([9]; FIG. 25C): reduced | Nras-positive preneoplastic hepatocytes ([9]; FIG. 25D): reduced | rotarod test (physical fitness and coordination) (old mice; 24 month old female mice, 1 mg/kg ip, 3 consecutive days on treatment weeks, FIG. 21): improves the physical fitness of old mice | concentrations of Albumin, Amylase and PHOS on plasma (old mice; old mice of FIG. 21A vs young (90 days old), FIG. 22): reverts ageing-associated changes of metabolites in blood | SA-β-Gal positive cells in the liver (old mice; old mice, FIG. 24): decreased senescence-associated β-galactosidase positive cells in the liver | expression of Cdkn2a mRNA (p16Ink4a) (old mice; qRT-PCR, liver, kidney and muscle of old female mice, FIG. 23): can be reduced after ouabain treatment

CS(=O)(=O)c1cccc(CNc2nc(Nc3ccc4c(c3)CCC(=O)N4)ncc2C(F)(F)F)c1 [PF-573228, 6-[4-(3-methyane-sulfonyl-benzyl-amino)-5-trifluoro-methyl-pyrimidin-2-ylamino]-3,4-dihydro-1H-quinolin-2-one]
elimination of senescent cells with pan-caspase inhibitor QVD (apoptosis induction) (IMR90 ER:RAS cells [10]): selectively induce apoptosis of senescent cells | senolytic properties: selective reduction of senescent (+4OHT) vs normal (−4OHT) cell numbers (IMR90 ER:RAS cells [6]): showed the most promising senolytic properties | ability of FAK inhibitors to kill differentially senescent cells (4OHT induced) vs non-senescent cells (DMSO treated) (IMR90 ER:RAS cells [6]): preferentially kill senescent cells in a dose-dependent manner

C=C(C)[C@H]1Cc2c(ccc3c2O[C@@H]2COc4cc(OC)c(OC)cc4[C@@H]2C3=O)O1 [Rotenone, (2R,6aS,12aS)-1,2,6,6a,12,12a-hexahydro-2-isopropenyl-8,9-dimethoxychromeno[3,4-b]furo(2,3-h)chromen-6-one]
elimination of senescent cells with pan-caspase inhibitor QVD (apoptosis induction) (IMR90 ER:RAS cells [10]): selectively induce apoptosis of senescent cells

CC(=O)c1c(O)c(C)c(O)c(Cc2c(O)c3c(c(C(=O)/C=C/c4ccccc4)c2O)OC(C)(C)C=C3)c1O [Rottlerin]
elimination of senescent cells with pan-caspase inhibitor QVD (apoptosis induction) (IMR90 ER:RAS cells [10]): selectively induce apoptosis of senescent cells | selective elimination of senescent cells from mixed cultures [8]: selective elimination of senescent cells from the co-cultures

CC(C)(C)c1cc(/C=C(\C#N)C(N)=S)cc(C(C)(C)C)c1O [Tyrphostin AG879, (2E)-3-[3,5-Bis(1,1-dimethylethyl)-4-hydroxyphenyl]-2-cyano-2-propenethioamide]
senolytic properties: selective reduction of senescent (+4OHT) vs normal (−4OHT) cell numbers (IMR90 ER:RAS cells [6]): showed the most promising senolytic properties

Cyclosporine
senolytic properties: selective reduction of senescent (+4OHT) vs normal (−4OHT) cell numbers (IMR90 ER:RAS cells [6]): showed the most promising senolytic properties
